Assay results: patent publication US20220041681A1 (MEDIMMUNE LIMITED, priority 2016, published 2022)
Numbered stars: 1 amine (or outer) side, 2 acyl side, 3 side chain; on linkers, the order of the positions; unused ones are H or OH. Side chains are listed from the residue outwards. Peptide text beside a SMILES is read from it. * marks the point of attachment. γGlu = O=C(O)[C@H](CCC(=O)[*:2])N[*:1]; Palmitoyl = CCCCCCCCCCCCCCCC(=O)*; Ahx = NCCCCCC(=O)O; βAla = NCCC(=O)O

Tests used:
[1] = system: diet induced obesity (DIO) mouse model; experiment: Diet induced obesity (DIO) mouse model, study A; assay type: in vivo
Description: Female C57/Bl6JHsdOla (obtained from Harlan Laboratories. UK) were started on a high fat diet of D12492 (Research Diets, NJ, USA) and a chocolate confection, delicato ball (Delicata Bakverk, Sweden) at 9-11 weeks of age, and were maintained on the diet for 16 weeks prior to arrival to the animal facility, during a three week acclimation period and during drug treatment, caloric content of the two components of the diet is shown in Table 11. The mice were divided into 9 groups (n=5-6), and treatment was started at 29 weeks of age.
(§1) The body weight of the animals was monitored daily throughout die dosing period. At day 14, blood samples for the measurement of plasma glucose and insulin from conscious mice were obtained after a 4-hour fasting period. Mice were then anaesthetized using isofluorane and terminal blood was collected from the capillary bed behind the eye. The following parameters were measured: blood chemistry measurements of triglycerides, total cholesterol, non-esterified fatty acids (NEFA), beta-hydroxybutyrate and fibroblast growth factor 21 (FGF21) (Tables 14 and 15 below).

[2] = system: diet induced obesity (DIO) mouse model; experiment: Diet induced obesity (DIO) mouse model, study B; assay type: in vivo
Procedure: as §1, with “the” for “die”, “isoflourane” for “isofluorane”, “(Table 16” for “(Tables 14”, “Table 17” for “15”

[3] = molecular target: Human GLP1R (Homo sapiens, UniProt P43220); experiment: cAMP activity assay (assay 1) in assay medium; assay type: cell-based; conditions: Table 4, additional peptides, read-out: hGLP1R EC50
Procedure: (§2) All sample dilutions were made in duplicate.
(§3) A frozen cryo-vial of cells expressing the receptor of interest was thawed rapidly in a water-bath, transferred to pre-warmed assay media and spun at 240×g for 5 minutes. Cells were re-suspended in assay media at an optimized concentration (e.g. hGCGR cells at 1×10^5 cells/ml, hGLP-1R and hGIPR cells at 0.5×10^5 cells/ml).
(§4) To this, 5 μL cell suspension was added and the plates incubated at room temperature for 30 minutes.
(§5) cAMP levels were measured using a commercially available cAMP dynamic 2 HTRF kit (Cisbio, Cat #62AM4PEJ), following the two step protocol as per manufacturer's recommendations. In brief; anti-cAMP cryptate (donor fluorophore) and cAMP-d2 (acceptor fluorophore) were made up separately by diluting each 120 in conjugate & lysis buffer provided in the kit. 5 μL anti-cAMP cryptate was added to all wells of the assay plate, and 5 μL cAMP-d2 added to all wells except non-specific binding (NSB) wells, to which conjugate and lysis buffer was added.

[4] = molecular target: T1, Human GlucR (Homo sapiens, UniProt P47871); experiment: cAMP activity assay (assay 1) in assay medium; assay type: cell-based; conditions: Table 4, additional peptides, read-out: hGlucR EC50
T1 construct: expressed in transfected cells
Procedure: as §2, §3, §4, §5

[5] = 27 nmol/kg sc twice daily, day 14
[6] = 27 nmol/kg sc twice daily, day 14, 4-hour fasting

Sequence of Human GLP1R (P43220 24-463): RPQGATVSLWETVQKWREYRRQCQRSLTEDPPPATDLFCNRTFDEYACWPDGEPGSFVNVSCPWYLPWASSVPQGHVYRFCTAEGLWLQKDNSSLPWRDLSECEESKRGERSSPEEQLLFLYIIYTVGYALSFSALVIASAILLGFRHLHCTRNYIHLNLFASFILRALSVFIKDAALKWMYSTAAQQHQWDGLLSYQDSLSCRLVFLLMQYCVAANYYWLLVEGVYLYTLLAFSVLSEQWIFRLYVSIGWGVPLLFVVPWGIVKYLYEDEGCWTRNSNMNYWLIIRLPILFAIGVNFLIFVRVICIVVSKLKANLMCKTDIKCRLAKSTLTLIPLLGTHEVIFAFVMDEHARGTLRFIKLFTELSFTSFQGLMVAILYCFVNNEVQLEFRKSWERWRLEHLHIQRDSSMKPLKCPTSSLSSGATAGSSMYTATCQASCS
T1 sequence (P47871 26-477): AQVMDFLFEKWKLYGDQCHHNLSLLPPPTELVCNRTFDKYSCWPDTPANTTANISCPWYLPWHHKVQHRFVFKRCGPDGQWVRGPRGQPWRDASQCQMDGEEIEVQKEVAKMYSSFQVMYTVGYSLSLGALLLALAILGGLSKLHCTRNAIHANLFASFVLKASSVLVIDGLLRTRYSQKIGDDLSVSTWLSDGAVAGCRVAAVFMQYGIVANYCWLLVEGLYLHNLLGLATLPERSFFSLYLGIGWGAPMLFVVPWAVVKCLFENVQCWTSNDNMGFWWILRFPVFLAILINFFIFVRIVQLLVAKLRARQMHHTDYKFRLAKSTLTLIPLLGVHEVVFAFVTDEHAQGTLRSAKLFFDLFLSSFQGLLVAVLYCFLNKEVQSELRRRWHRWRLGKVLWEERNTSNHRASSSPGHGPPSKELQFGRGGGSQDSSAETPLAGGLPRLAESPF

CCCCCCCCCCCCCCCC(=O)N[C@@H](CCC(=O)NCCCC[C@H](NC(=O)[C@H](C)NC(=O)[C@H](C)NC(=O)[C@H](CCC(N)=O)NC(=O)CNC(=O)[C@H](CCC(=O)O)NC(=O)[C@H](CC(C)C)NC(=O)[C@H](Cc1ccc(O)cc1)NC(=O)[C@H](CO)NC(=O)[C@H](CO)NC(=O)[C@@H](NC(=O)[C@H](CC(=O)O)NC(=O)[C@H](CO)NC(=O)[C@@H](NC(=O)[C@H](Cc1ccccc1)NC(=O)[C@@H](NC(=O)CNC(=O)[C@H](CCC(=O)O)NC(=O)[C@H](C)NC(=O)[C@@H](N)Cc1cnc[nH]1)[C@@H](C)O)[C@@H](C)O)C(C)C)C(=O)N[C@@H](CCC(=O)O)C(=O)N[C@@H](Cc1ccccc1)C(=O)N[C@H](C(=O)N[C@@H](C)C(=O)N[C@@H](Cc1c[nH]c2ccccc12)C(=O)N[C@@H](CC(C)C)C(=O)N[C@H](C(=O)N[C@@H](CCCNC(=N)N)C(=O)NCC(=O)N[C@@H](CCCNC(=N)N)C(=O)NCC(=O)O)C(C)C)[C@@H](C)CC)C(=O)O [Liraglutide, reference compound]
BW day 14 (% change of vehicle mean) ([1]; 27 nmol/kg sc twice daily 14 days): −13.3%
BeHy ([1]; 27 nmol/kg, day 14): 345 u mol/l
FGF 21 ([1]; 27 nmol/kg, day 14): 2481 pg/mL
HOMA ([1]; 27 nmol/kg, day 14): 2.8
Hepatic TG ([1]; 27 nmol/kg, day 14): 13.1 g TB/100 g tissue
Insulin ([1]; 27 nmol/kg, day 14): 0.3 nM
Plasma Cholesterol ([1]; 27 nmol/kg, day 14): 3.75 mM
Plasma NEFA ([1]; 27 nmol/kg, day 14): 0.24 Mm
Plasma TG ([1]; 27 nmol/kg, day 14): 0.24 mM
Glucose ([1]; 27 nmol/kg, day 14, 4-hour fasting): 8.0 mM
BW day 14 (% change of vehicle mean) ([2]; 27 nmol/kg sc twice daily for 14 days): −14%
FGF 21 [2, 5]: 2990 pg/mL
HOMA [2, 5]: 3.51
Hepatic TG [2, 5]: 18.4 g TG/100 g tissue
Plasma Cholesterol [2, 5]: 3.26 mM
Plasma NEFA [2, 5]: 0.29 mM
Plasma TG [2, 5]: 0.28 mM
Glucose [2, 6]: 7.7 mM
Insulin [2, 6]: 0.31 nM

CCCCCCCCCCCCCCCC(=O)N[C@@H](CCC(=O)NCCCC[C@H](NC(=O)[C@H](CO)NC(=O)[C@H](CC(=O)O)NC(=O)[C@H](CC(C)C)NC(=O)[C@H](Cc1ccc(O)cc1)NC(=O)[C@H](CCCCN)NC(=O)[C@H](CO)NC(=O)[C@H](Cc1ccc(O)cc1)NC(=O)[C@H](CC(=O)O)NC(=O)[C@H](CO)NC(=O)[C@@H](NC(=O)[C@H](Cc1ccccc1)NC(=O)[C@@H](NC(=O)CNC(=O)[C@H](CCC(N)=O)NC(=O)CNC(=O)[C@@H](N)Cc1c[nH]cn1)[C@@H](C)O)[C@@H](C)O)C(=O)N[C@@H](CCCNC(=N)N)C(=O)N[C@@H](C)C(=O)N[C@@H](CCC(N)=O)C(=O)N[C@@H](CC(=O)O)C(=O)N[C@@H](Cc1ccccc1)C(=O)N[C@H](C(=O)N[C@@H](CCC(N)=O)C(=O)N[C@@H](Cc1c[nH]c2ccccc12)C(=O)N[C@@H](CC(C)C)C(=O)N[C@H](C(=O)N[C@@H](C)C(=O)NCC(=O)NCC(N)=O)C(C)C)C(C)C)C(=O)O [g3 ? 0]
EC50 [3]: 0.1 nM
EC50 [4]: 0.362 nM

CCCCCCCCCCCCCCCC(=O)N[C@@H](CCC(=O)NCCCC[C@H](NC(=O)[C@H](CO)NC(=O)[C@H](CC(=O)O)NC(=O)[C@H](CC(C)C)NC(=O)[C@H](Cc1ccc(O)cc1)NC(=O)[C@H](CCCCN)NC(=O)[C@H](CO)NC(=O)[C@H](Cc1ccc(O)cc1)NC(=O)[C@H](CC(=O)O)NC(=O)[C@H](CO)NC(=O)[C@@H](NC(=O)[C@H](Cc1ccccc1)NC(=O)[C@@H](NC(=O)CNC(=O)[C@H](CCC(=O)O)NC(=O)[C@H](CO)NC(=O)[C@@H](N)Cc1c[nH]cn1)[C@@H](C)O)[C@@H](C)O)C(=O)N[C@@H](CCCNC(=N)N)C(=O)N[C@@H](C)C(=O)N[C@@H](CCC(=O)O)C(=O)N[C@@H](CC(=O)O)C(=O)N[C@@H](Cc1ccccc1)C(=O)N[C@H](C(=O)N[C@@H](CCC(=O)O)C(=O)N[C@@H](Cc1c[nH]c2ccccc12)C(=O)N[C@@H](CC(C)C)C(=O)N[C@H](C(=O)N[C@@H](C)C(=O)NCC(=O)NCC(N)=O)C(C)C)C(C)C)C(=O)O [g639] (H-HSEGTFTSDYSKYLDSK([γGlu-Palmitoyl])RAEDFVEWLVAGG-NH2; N-terminus assumed)
EC50 [4]: 8210 nM

CCCCCCCCCCCCCCCC(=O)NCCCCCC(=O)NCCCC[C@H](NC(=O)[C@H](CO)NC(=O)[C@H](CC(=O)O)NC(=O)[C@H](CC(C)C)NC(=O)[C@H](Cc1ccc(O)cc1)NC(=O)[C@H](CCC(=O)O)NC(=O)[C@H](CO)NC(=O)[C@H](Cc1ccc(O)cc1)NC(=O)[C@H](CC(=O)O)NC(=O)[C@H](CO)NC(=O)[C@@H](NC(=O)[C@H](Cc1ccccc1)NC(=O)[C@@H](NC(=O)CNC(=O)[C@H](CCC(N)=O)NC(=O)CNC(=O)[C@@H](N)Cc1c[nH]cn1)[C@@H](C)O)[C@@H](C)O)C(=O)N[C@@H](CCCNC(=N)N)C(=O)N[C@@H](C)C(=O)N[C@@H](C)C(=O)N[C@@H](CC(=O)O)C(=O)N[C@@H](Cc1ccccc1)C(=O)N[C@H](C(=O)N[C@@H](C)C(=O)N[C@@H](Cc1c[nH]c2ccccc12)C(=O)N[C@@H](CC(C)C)C(=O)N[C@@H](CCC(=O)O)C(=O)N[C@@H](CCCNC(=N)N)C(=O)NCC(=O)NCC(N)=O)C(C)C [g683]
EC50 [4]: 0.372 nM

CCCCCCCCCCCCCCCC(=O)NCCCCCC(=O)NCCCC[C@H](NC(=O)[C@H](CO)NC(=O)[C@H](CC(=O)O)NC(=O)[C@H](CC(C)C)NC(=O)[C@H](Cc1ccc(O)cc1)NC(=O)[C@H](CCC(=O)O)NC(=O)[C@H](CO)NC(=O)[C@H](Cc1ccc(O)cc1)NC(=O)[C@H](CC(=O)O)NC(=O)[C@H](CO)NC(=O)[C@@H](NC(=O)[C@H](Cc1ccccc1)NC(=O)[C@@H](NC(=O)CNC(=O)[C@H](CCC(N)=O)NC(=O)CNC(=O)[C@@H](N)Cc1c[nH]cn1)[C@@H](C)O)[C@@H](C)O)C(=O)N[C@@H](CCCNC(=N)N)C(=O)N[C@@H](C)C(=O)N[C@@H](CCCNC(=N)N)C(=O)N[C@@H](CC(=O)O)C(=O)N[C@@H](Cc1ccccc1)C(=O)N[C@H](C(=O)N[C@@H](C)C(=O)N[C@@H](Cc1c[nH]c2ccccc12)C(=O)N[C@@H](CC(C)C)C(=O)N[C@@H](CCC(=O)O)C(=O)N[C@@H](CCCNC(=N)N)C(=O)NCC(=O)NCC(N)=O)C(C)C [g684] (H-HGQGTFTSDYSEYLDSK([Ahx-Palmitoyl])RARDFVAWLERGG-NH2; N-terminus assumed)
EC50 [3]: 0.0161 nM

CCCCCCCCCCCCCCCC(=O)NCCC(=O)NCCCC[C@H](NC(=O)[C@H](CO)NC(=O)[C@H](CC(=O)O)NC(=O)[C@H](CC(C)C)NC(=O)[C@H](Cc1ccc(O)cc1)NC(=O)[C@H](CCC(=O)O)NC(=O)[C@H](CO)NC(=O)[C@H](Cc1ccc(O)cc1)NC(=O)[C@H](CC(=O)O)NC(=O)[C@H](CO)NC(=O)[C@@H](NC(=O)[C@H](Cc1ccccc1)NC(=O)[C@@H](NC(=O)CNC(=O)[C@H](CCC(=O)O)NC(=O)[C@H](CO)NC(=O)[C@@H](N)Cc1c[nH]cn1)[C@@H](C)O)[C@@H](C)O)C(=O)N[C@@H](CCCNC(=N)N)C(=O)N[C@@H](C)C(=O)N[C@@H](CCCNC(=N)N)C(=O)N[C@@H](CC(=O)O)C(=O)N[C@@H](Cc1ccccc1)C(=O)N[C@H](C(=O)N[C@@H](C)C(=O)N[C@@H](Cc1c[nH]c2ccccc12)C(=O)N[C@@H](CC(C)C)C(=O)N[C@@H](CCC(=O)O)C(=O)N[C@@H](C)C(=O)NCC(=O)NCC(N)=O)C(C)C [g734] (H-HSEGTFTSDYSEYLDSK([βAla-Palmitoyl])RARDFVAWLEAGG-NH2; N-terminus assumed)
EC50 [4]: 8280 nM

CCCCCCCCCCCCCCCC(=O)N[C@@H](CCC(=O)NCCCC[C@H](NC(=O)[C@H](CO)NC(=O)[C@H](CC(=O)O)NC(=O)[C@H](CC(C)C)NC(=O)[C@H](Cc1ccc(O)cc1)NC(=O)[C@H](CCC(=O)O)NC(=O)[C@H](CO)NC(=O)[C@H](Cc1ccc(O)cc1)NC(=O)[C@H](CC(=O)O)NC(=O)[C@H](CO)NC(=O)[C@@H](NC(=O)[C@H](Cc1ccccc1)NC(=O)[C@@H](NC(=O)CNC(=O)[C@H](CCC(N)=O)NC(=O)CNC(=O)[C@@H](N)Cc1c[nH]cn1)[C@@H](C)O)[C@@H](C)O)C(=O)N[C@@H](CCCNC(=N)N)C(=O)N[C@@H](C)C(=O)N[C@@H](CCCNC(=N)N)C(=O)N[C@@H](CC(=O)O)C(=O)N[C@@H](Cc1ccccc1)C(=O)N[C@H](C(=O)N[C@@H](C)C(=O)N[C@@H](Cc1c[nH]c2ccccc12)C(=O)N[C@@H](CC(C)C)C(=O)N[C@H](C(=O)N[C@@H](C)C(=O)NCC(=O)NCC(N)=O)C(C)C)C(C)C)C(=O)O [g735] (H-HGQGTFTSDYSEYLDSK([γGlu-Palmitoyl])RARDFVAWLVAGG-NH2; N-terminus assumed)
EC50 [3]: 0.161 nM

CCCCCCCCCCCCCCCC(=O)N[C@@H](CCC(=O)NCCCC[C@H](NC(=O)[C@H](CCC(=O)O)NC(=O)[C@H](CO)NC(=O)[C@H](Cc1ccc(O)cc1)NC(=O)[C@H](CC(=O)O)NC(=O)[C@H](CO)NC(=O)[C@@H](NC(=O)[C@H](Cc1ccccc1)NC(=O)[C@@H](NC(=O)CNC(=O)[C@H](CCC(N)=O)NC(=O)[C@H](CO)NC(=O)[C@@H](N)Cc1c[nH]cn1)[C@@H](C)O)[C@@H](C)O)C(=O)N[C@@H](CC(C)C)C(=O)N[C@@H](CC(=O)O)C(=O)N[C@@H](CO)C(=O)N[C@@H](CCC(=O)O)C(=O)N[C@@H](CCCNC(=N)N)C(=O)N[C@@H](C)C(=O)N[C@@H](CCCNC(=N)N)C(=O)N[C@@H](CC(=O)O)C(=O)N[C@@H](Cc1ccccc1)C(=O)N[C@H](C(=O)N[C@@H](C)C(=O)N[C@@H](Cc1c[nH]c2ccccc12)C(=O)N[C@@H](CC(C)C)C(=O)N[C@H](C(=O)N[C@@H](C)C(=O)NCC(=O)NCC(N)=O)C(C)C)C(C)C)C(=O)O [g802] (H-HSQGTFTSDYSEK([γGlu-Palmitoyl])LDSERARDFVAWLVAGG-NH2; N-terminus assumed)
EC50 [3]: 0.0364 nM
